Results reported in patent US5373040A, “Amorphous solid modification of 2,2',2"-nitrilo[triethyl-tris-(3,3',5,5'-tetra-tert-butyl-1,1'-biphenyl- 2,2'-diyl)phosphite]” (Ciba-Geigy Corporation, priority 1993, dated 1994).

Legend:
[1] = Process stabilization of polypropylene at 525° F.: melt flow rate (ASTM D1238); conditions: in the presence of a representative phenolic antioxidant; versus prior art compound of U.S. Pat. No. 4,318,845
Method: The test additives are incorporated into the polypropylene by dry blending or, when the additive is a liquid, using a minimum amount of methylene chloride solvent. The solvent is then removed by evaporation under reduced pressure.
After each of the first, third and fifth extrusions, the melt flow rate (in grams/10 minutes) is determined by ASTM method D1238 on the pellets obtained from the extruder.

[2] = Apparent bulk density (ASTM D-1895); assay type: physicochemical
Method: The apparent bulk density of the solids is measured according to the method of ASTM D-1895 (79). A higher apparent bulk density allows for a greater mass per unit volume which affords advantages in packaging of the solid product, such as lower costs for the packaging material, less storage space is required, etc.

[3] = Stabilization of unsaturated elastomer: time until onset of crosslinking; conditions: 0.5% by weight, 150° C., 60 rpm; versus unstabilized SBR
Method: The instant compound of Example 1 is evaluated in an emulsion of SBR (cold polymerized, 23.5% styrene with a 52 Mooney Viscosity). The unstabilized SBR (60 g) is added to the mixing chamber of a Brabender Plasticorder set at 150° C. and 60 rpm. After 30 seconds, 0.5% by weight of the compound of instant Example 1 is added to the chamber. Stability of the SBR is determined by the time until onset of crosslinking of the rubber as indicated by an increase in the torque curve.

[4] = Stabilization of poly(butylene terephthalate): intrinsic viscosity; conditions: 0.3% by weight; second pass extrudate and injection molded plaques; versus PBT containing no stabilizer
Method: Poly(butylene terephthalate), PBT (RYNITE® 9160, DuPont) is tumble blended with 0.3% by weight of the compound of instant Example 1. The polymer is then extruded and pelletized at 260° C. A portion of the collected pellets are reextruded under the same conditions for a second pass. The remainder from the first extrusion is injection molded into 2"×2"×125 mil (5.08 cm×5.08 cm×3.175 mm) plaques at 540° F. (282° C.) with a 100° C. mold temperature in a BOY 30M molder. Intrinsic viscosities of the second pass extrudate and the injection molded plaques are determined.

[5] = Stabilization of 6,6-nylon: yellowness index; conditions: 0.5% by weight; versus unstabilized control plaques
Method: 6,6-Nylon (ZYTEL® 101, DuPont) is thoroughly dried in a vacuum oven and tumble blended with 0.5% by weight of the compound of instant Example 1. The polyamide is extruded on a 1" (2.54 cm) MPM extruder at 575° F. (302° C.). The collected pellets are injection molder at 575° F. (302° C.) with the mold at 150° C. in a BOY 30M injection molder. The plaques obtained are measured for yellowness index (YI) values using ASTM D1925-70.

[6] = Solubility in lubricating oil (Mobil BB oil); assay type: physicochemical
Method: The following experiments are performed to determine the solubility of amorphous compound A and crystalline compound B in Mobil BB oil. Both compounds have the same uniform particle sizes (40-70 micron).
Compound A=amorphous form of 2,2',2"-nitrilo-[triethyl-tris-(3,3',5,5'-tetra-tert-butyl-1,1'-biphenyl-2,2'-diyl) phosphite], prepared in accordance with instant Example 1.
Compound B=crystalline form of 2,2',2"-nitrilo[triethyl-tris-(3,3',5,5'-tetra-tert-butyl-1,1'-biphenyl-2,2'-diyl) phosphite], prepared in accordance with Example 4 of U.S. Pat. No. 4,318,845.
Into a vial of 980 mg. of Mobil BB oil is added 20 mg. of compound A at ambient temperature. For the first 30 minutes, the vial is shaken every 10 minutes. After the initial 30 minutes, the vial is left standing.
Into a vial of 980 mg. of Mobil BB oil is added 20 mg. of compound B at ambient temperature. For the first 30 minutes, the vial is shaken every 10 minutes. After the initial 30 minutes, the vial is left standing.
Into a vial of 980 mg. of Mobil BB oil is added 20 mg. of compound A at ambient temperature. The vial is then placed into a 60° C. oil bath.
Into a vial of 980 mg. of Mobil BB oil is added 20 mg. of compound B at ambient temperature. The vial is then placed into a 60° C. oil bath.
Into a vial of 990 mg. of Mobil BB oil is added 10 mg. of compound A at ambient temperature. […] is shaken every 10 minutes. After the initial 30 minutes, the vial is left standing.
Into a vial of 990 mg. of Mobil BB oil is added 10 mg. of compound B at ambient temperature. […] is shaken every 10 minutes. After the initial 30 minutes, the vial is left standing.

[7] = Stabilization of poly(ethylene terephthalate): intrinsic viscosity; conditions: 0.5% by weight, five extrusion passes; versus PET containing no stabilizer
Method: Poly(ethylene terephthalate), PET (KODAPAR® 7352, Eastman Chemical) is tumble blended with 0.5% by weight of the compound of instant Example 1. The polymer is then extruded and pelletized at 500° F. (260°C.) in a MPM 1" (2.54 cm) single screw extruder. The pellets are collected, redried and reextruded 5 times. Pellets are collected from each extrusion pass and the polymer intrinsic viscosity measured.

[8] = compared to the prior art crystalline form

In the case of `CC(C)(C)c1cc(C(C)(C)C)c2op(OCCN(CCOp3oc4c(C(C)(C)C)cc(C(C)(C)C)cc4c4cc(C(C)(C)C)cc(C(C)(C)C)c4o3)CCOp3oc4c(C(C)(C)C)cc(C(C)(C)C)cc4c4cc(C(C)(C)C)cc(C(C)(C)C)c4o3)oc3c(C(C)(C)C)cc(C(C)(C)C)cc3c2c1` [Example 1, 2,2',2"-nitrilo[triethyl-tris-(3,3',5,5'-tetra-tert-butyl-1,1'-biphenyl-2,2'-diyl)phosphite]], the “stabilizing polypropylene against thermal and oxidative degradation (change in melt flow rate)” value [1] is reported as “equal or more effective”, the “Bulk Density” value [2] is reported as 0.49 g/mL and the “induction time till crosslinking occurs” value [3] is reported as “longer induction time”. For the same molecule, the “retention of intrinsic viscosity value” [4] was “better retention of intrinsic viscosity value”, the “yellowness index (YI)” value [5] was “lower YI values (less discoloration)” and the Observation ([6]; 1% by weight in Mobil BB oil, RT, 1.5 hrs., listed as A) was “Clear solution”. The Observation ([6]; 1% by weight in Mobil BB oil, RT, 1.5 hrs., listed as compound A) was “clear solution”, the “Time to clear solution” value ([6]; 1% by weight in Mobil BB oil, RT, listed as A) was 1.5 h and the “Time to clear solution” value ([6]; 1% by weight in Mobil BB oil, RT, listed as compound A) was 1.5 h. The Observation ([6]; 2% by weight in Mobil BB oil, 60° C. oil bath, 10 min., listed as A) was “Clear solution”, the Observation ([6]; 2% by weight in Mobil BB oil, 60° C. oil bath, 10 min., listed as compound A) was “clear solution” and the “Time to clear solution” value ([6]; 2% by weight in Mobil BB oil, 60° C. oil bath, listed as A) was 0.167 h. For the same molecule, the “Time to clear solution” value ([6]; 2% by weight in Mobil BB oil, 60° C. oil bath, listed as compound A) was 0.167 h, the Observation ([6]; 2% by weight in Mobil BB oil, RT, 2.5 hrs., listed as A) was “Clear solution” and the Observation ([6]; 2% by weight in Mobil BB oil, RT, 2.5 hrs., listed as compound A) was “clear solution”. The “Time to clear solution” value ([6]; 2% by weight in Mobil BB oil, RT, listed as A) was 2.5 h, the “Time to clear solution” value ([6]; 2% by weight in Mobil BB oil, RT, listed as compound A) was 2.5 h and the “rate of dissolving in lubricants” value [6, 8] was “faster rate of dissolving”. The “rate of dissolving in organic materials, such as in polymers and in lubricants” value [6, 8] was “faster rate of dissolving”, the solubility in lubricants [6, 8] was “better solubility” and the “solubility in organic materials, such as in polymers and in lubricants” value [6, 8] was “better solubility”. For the same molecule, the “retention of original intrinsic viscosity” value [7] was “higher retention of original intrinsic viscosity”.
